The record followed here is US8461328B2, “Tricyclic heterocyclic compounds, compositions and methods of use thereof” (Genentech, Inc., priority 2010, dated 2013).

Common to all, as to assay type: biochemical
The target of one test is T1, JAK1 (Homo sapiens, UniProt P23458).
T1 construct: made in house; host or cells: SF9 insect cells (baculovirus)
Kind of test: JAK1 inhibition (Table 4). The conditions noted are these: read-out: JAK1 Ki.

The target in the next test is T2, JAK3 (Homo sapiens, UniProt P52333).
T2 construct: made in house; host or cells: SF9 insect cells (baculovirus)
Kind of test: JAK3 inhibition (Table 4). As to conditions: read-out: JAK3 Ki.

The target in the next test is T3, JAK2 (Homo sapiens, UniProt O60674).
T3 construct: made in house; host or cells: SF9 insect cells (baculovirus)
Description: JAK2 inhibition (Table 4). The conditions noted are these: read-out: JAK2 Ki.

The next test concerns the target T4, TYK2 (Homo sapiens, UniProt P29597).
T4 construct: made in house; host or cells: SF9 insect cells (baculovirus)
T4 sequence (P29597 873-1187): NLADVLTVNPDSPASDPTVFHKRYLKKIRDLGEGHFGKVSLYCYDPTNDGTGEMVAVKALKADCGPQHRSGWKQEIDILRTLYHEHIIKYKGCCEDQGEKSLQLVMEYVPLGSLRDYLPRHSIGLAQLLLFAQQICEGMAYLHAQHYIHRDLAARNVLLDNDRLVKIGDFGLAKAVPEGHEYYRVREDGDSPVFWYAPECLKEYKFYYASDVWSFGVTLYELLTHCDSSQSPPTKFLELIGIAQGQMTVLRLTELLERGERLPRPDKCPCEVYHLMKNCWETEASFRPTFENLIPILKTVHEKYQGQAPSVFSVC
Description: TYK2 inhibition (Table 4).

Structures are written as SMILES.

T1 sequence (P23458 852-1154): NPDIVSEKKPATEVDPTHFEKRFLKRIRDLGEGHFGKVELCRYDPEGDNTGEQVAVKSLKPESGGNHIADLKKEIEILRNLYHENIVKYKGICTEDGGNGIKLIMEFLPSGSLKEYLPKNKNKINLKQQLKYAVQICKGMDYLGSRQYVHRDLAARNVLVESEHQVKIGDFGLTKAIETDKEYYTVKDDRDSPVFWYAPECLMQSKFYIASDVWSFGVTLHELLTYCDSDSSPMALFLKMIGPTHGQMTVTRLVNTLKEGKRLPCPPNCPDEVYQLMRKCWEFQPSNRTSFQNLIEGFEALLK
T2 sequence (P52333 783-1124): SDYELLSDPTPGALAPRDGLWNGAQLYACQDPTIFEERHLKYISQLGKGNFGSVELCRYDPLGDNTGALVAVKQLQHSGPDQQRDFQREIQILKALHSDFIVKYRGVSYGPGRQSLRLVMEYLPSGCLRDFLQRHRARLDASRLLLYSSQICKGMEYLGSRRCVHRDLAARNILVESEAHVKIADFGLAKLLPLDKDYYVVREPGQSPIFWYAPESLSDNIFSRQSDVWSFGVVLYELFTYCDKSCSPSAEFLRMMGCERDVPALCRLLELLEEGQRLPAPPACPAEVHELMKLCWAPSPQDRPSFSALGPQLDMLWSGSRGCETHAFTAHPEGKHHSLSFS
T3 sequence (O60674 812-1132): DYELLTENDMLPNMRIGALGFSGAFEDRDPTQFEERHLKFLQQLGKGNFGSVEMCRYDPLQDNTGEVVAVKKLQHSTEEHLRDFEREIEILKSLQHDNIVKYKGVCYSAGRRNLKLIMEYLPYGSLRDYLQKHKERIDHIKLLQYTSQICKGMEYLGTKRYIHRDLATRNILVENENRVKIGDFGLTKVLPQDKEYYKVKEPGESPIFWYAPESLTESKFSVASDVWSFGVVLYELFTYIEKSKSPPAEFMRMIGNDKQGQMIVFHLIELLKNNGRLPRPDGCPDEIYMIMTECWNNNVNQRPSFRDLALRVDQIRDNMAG

Usually Ki stands for the dissociation constant of the complex between target and ligand, obtained from inhibition or displacement. For the compound `O=C1CCCN1Cc1nc2cnc3[nH]ccc3c2n1C1CCN(Cc2ccccc2)CC1` [Example 24, 1-[1-(1-Benzyl-piperidin-4-yl)-1,6-dihydro-1,2,3,5,6-tetraaza-as-indacen-2-ylmethyl]-pyrrolidin-2-one], the Ki was found to be 10.4 nM at JAK1, 29.2 nM on JAK3, 68.6 nM on JAK2 and 735 nM at TYK2.
Taken in the same sequence, the figures for `N#CCC1(N2CCC(n3cnc4cnc5[nH]ccc5c43)CC2)COC1` [Example 195, {3-[4-(6H-1,2,3,5,6-Tetraaza-as-indacen-1-yl)-piperidin-1-yl]-oxetan-3-yl}-acetonitrile] were 0.66 nM, 27.6 nM, 1.13 nM and 2.16 nM.
The like results for `C[C@@H](O)c1nc2cnc3[nH]ccc3c2n1[C@H]1CCN(S(C)(=O)=O)C1` [Example 930, (R)-1-[1-((S)-1-Methanesulfonyl-pyrrolidin-3-yl)-1,6-dihydro-1,3,5,6-tetraaza-as-indacen-2-yl]-ethanol] were, in that order, 87.2 nM, 190 nM, 950 nM and 347 nM.
The like results for `Cc1nc2cnc3[nH]ccc3c2n1[C@@H]1CCCN(Cc2ccccc2)C1` [Example 238, (R)-1-(1-Benzyl-piperidin-3-yl)-2-methyl-1,6-dihydro-1,3,5,6-tetraaza-as-indacene] were, in that order, 29.3 nM, 85.2 nM, 26 nM and 171 nM.
For `Cc1nc2cnc3[nH]ccc3c2n1[C@H]1CC[C@H](NC(=O)OCC(F)F)CC1` [Example 607, Trans[4-(2-methyl-6H-1,2,3,5,6-tetraaza-as-indacen-1-yl)-cyclohexyl]-carbamic acid 2,2-difluoro-ethyl ester], the Ki on JAK1 worked out at 0.6 nM; at JAK3, 11.2 nM; on JAK2 it was 4.46 nM; at TYK2, 23.1 nM.
The like results for `c1cc2c(ncc3ncn(C4CCCCNC4)c32)[nH]1` (single isomer, unassigned) [Example 110, 1-Azepan-3-yl-1,6-dihydro-1,2,3,5,6-tetraaza-as-indacene] were, in that order, 154 nM, 704 nM, 292 nM and 647 nM.
Take `CS(=O)(=O)CCN1CCC[C@@H](n2cnc3cnc4[nH]ccc4c32)C1` [Example 57, 1-[(R)-1-(2-Methanesulfonyl-ethyl)-piperidin-3-yl]-1,6-dihydro-1,3,5,6-tetraaza-as-indacene]: the Ki came out at 5.21 nM at JAK1, 12 nM at JAK3, 9.05 nM on JAK2 and 45.8 nM at TYK2.
Taken in the same sequence, the figures for `Cc1nc2cnc3[nH]ccc3c2n1[C@H]1CC[C@H](NC(C)CC#N)CC1` (stereo partly drawn) [Example 590, Trans 3-[4-(2-methyl-6H-1,2,3,5,6-tetraaza-as-indacen-1-yl)-cyclohexylamino]-butyronitrile] were 2.74 nM, 17.1 nM, 13.5 nM and 43.1 nM.
The like results for `Cn1nccc1C(=O)N1CCC(n2cnc3cnc4[nH]ccc4c32)CC1` [Example 84, (2-Methyl-2H-pyrazol-3-yl)-[4-(6H-1,3,5,6-tetraaza-as-indacen-1-yl)-piperidin-1-yl]methanone] were, in that order, 11.6 nM, 747 nM, 36.1 nM and 160 nM.
As for `C[C@@H](O)c1nc2cnc3[nH]ccc3c2n1C1CCC(CS(C)(=O)=O)CC1` (mixture of isomers) [Example 649, (R)-1-[1-(4-Methanesulfonylmethyl-cyclohexyl)-1,6-dihydro-1,2,3,5,6-tetraaza-as-indacen-2-yl]-ethanol], the Ki was 4.82 nM on JAK1, 68.6 nM at JAK3, 38.6 nM at JAK2 and 38.4 nM at TYK2.
The like results for `CCOC(=O)NCCc1nc2cnc3[nH]ccc3c2n1C1CCN(CC)CC1(F)F` (single isomer, unassigned) [Example 680, {2-[1-(1-Ethyl-3,3-difluoro-piperidin-4-yl)-1,6-dihydro-1,2,3,5,6-tetraaza-as-indacen-2-yl]-ethyl}-carbamic acid ethyl ester] were, in that order, 7.32 nM, 28.4 nM, 56.3 nM and 412 nM.
The like results for `CC(O)c1nc2cnc3[nH]ccc3c2n1C1CC2CCC1O2` (single isomer, unassigned) [Example 847, endo-1-[1-(7-Oxa-bicyclo[2.2.1]hept-2-yl)-1,6-dihydro-1,3,5,6-tetraaza-as-indacen-2-yl]-ethanol] were, in that order, 105 nM, 381 nM, 530 nM and 279 nM.
The like results for `C[C@@H](O)c1nc2cnc3[nH]ccc3c2n1[C@H]1CC[C@H](NCC(F)(F)F)C1` [Example 1008, (R)-1-{1-[(1S,3S)-3-(2,2,2-Trifluoro-ethylamino)-cyclopentyl]-1,6-dihydro-1,3,5,6-tetraaza-as-indacen-2-yl}-ethanol] were, in that order, 1.72 nM, 98 nM, 23.9 nM and 7.93 nM.
For the compound `CNc1nc2cnc3[nH]ccc3c2n1C1CCN(CC(F)(F)F)CC1` [Example 658, Methyl-{1-[1-(2,2,2-trifluoro-ethyl)-piperidin-4-yl]-1,6-dihydro-1,2,3,5,6-tetraaza-as-indacen-2-yl}-amine], the Ki came to 3.51 nM on JAK1, 34.2 nM at JAK3, 13.6 nM on JAK2 and 67.4 nM on TYK2.
Consider `CO[C@H](C)c1nc2cnc3[nH]ccc3c2n1C1CCCCC1` [Example 685, 1-Cyclohexyl-2-((R)-1-methoxy-ethyl)-1,6-dihydro-1,2,3,5,6-tetraaza-as-indacene], for which the Ki on JAK1 was found to be 37.1 nM; on JAK3, 34.4 nM; at JAK2, 115 nM; on TYK2, 125 nM.
The like results for `C[C@@H](O)c1nc2cnc3[nH]ccc3c2n1C1CCNCC1(F)F` (single isomer, unassigned) [Example 939] were, in that order, 0.68 nM, 5.58 nM, 18.1 nM and 7.2 nM.
The like results for `Cc1nc2cnc3[nH]ccc3c2n1C1CCC(NS(C)(=O)=O)C1` (racemic) [Example 721, N-[3-(2-methyl-6H-1,3,5,6-tetraaza-as-indacen-1-yl)-cyclopentyl]-methanesulfonamide] were, in that order, 1.09 nM, 14.2 nM, 4.04 nM and 13.4 nM.
Taken in the same sequence, the figures for `OCCc1nc2cnc3[nH]ccc3c2n1C1CCN(Cc2ccccc2)CC1` [Example 82] were 3.5 nM, 14.2 nM, 11.3 nM and 194 nM.
Take `CC(C)NC(=O)Cc1nc2cnc3[nH]ccc3c2n1C1CCN(CCC#N)CC1` [Example 266, 2-{1-[1-(2-Cyano-ethyl)-piperidin-4-yl]-1,6-dihydro-1,3,5,6-tetraaza-as-indacen-2-yl}-N-isopropyl-acetamide]: the Ki at JAK1 was found to be 5.26 nM; on JAK3 it was 7.87 nM; at JAK2 it was 17.2 nM; at TYK2 it was 120 nM.
Taken in the same sequence, the figures for `C[C@@H](O)c1nc2cnc3[nH]ccc3c2n1C1CCN(Cc2nccn2C)CC1` [Example 826, (R)-1-{1-[1-(1-Methyl-1H-imidazol-2-ylmethyl)-piperidin-4-yl]-1,6-dihydro-1,3,5,6-tetraaza-as-indacen-2-yl}-ethanol] were 47 nM, 209 nM, 419 nM and 1160 nM.
Taken in the same sequence, the figures for `Cc1nc2cnc3[nH]ccc3c2n1C1CNCCOC1` (stereo not shown) [Example 910, 2-Methyl-1-[1,4]oxazepan-6-yl-1,6-dihydro-1,3,5,6-tetraaza-as-indacene] were 50.2 nM, 323 nM, 212 nM and 213 nM.
In the case of `CNc1nc2cnc3[nH]ccc3c2n1C1CCN(Cc2cccc(C#N)c2)CC1` [Example 772, 3-[4-(2-Methylamino-6H-1,3,56-tetraaza-as-indacen-1-yl)-piperidine-1-yl-methyl]-benzonitrile], the inhibitory constant (Ki) turned out to be 1.36 nM at JAK1, 43.5 nM at JAK3, 5.7 nM at JAK2 and 320 nM at TYK2.
On to `FC(F)c1nc2cnc3[nH]ccc3c2n1C1CCNCC1` [Example 307, 2-Difluoromethyl-1-piperidin-4-yl-1,6-dihydro-1,3,5,6-tetraaza-as-indacene], for which the Ki on JAK1 was 18.2 nM; on JAK3, 202 nM; at JAK2 it was 228 nM; on TYK2, 373 nM.
The like results for `CC(C)(C)OC(=O)N1CCC[C@@H](n2cnc3cnc4[nH]ccc4c32)C1` [Example 349, (R)-3-(6H-1,3,5,6-Tetraaza-as-indacen-1-yl)-piperidine-1-carboxylic acid tert-butyl ester] were, in that order, 15.3 nM, 120 nM, 19 nM and 113 nM.
Taken in the same sequence, the figures for `CC(O)c1nc2cnc3[nH]ccc3c2n1C1CC2CCC1O2` (single isomer, unassigned) [Example 846, endo-1-[1-(7-Oxa-bicyclo[2.2.1]hept-2-yl)-1,6-dihydro-1,3,5,6-tetraaza-as-indacen-2-yl]-ethanol] were 90.6 nM, 261 nM, 369 nM and 749 nM.
